The source of these data is US20200216432A1, “SULFONAMIDE DERIVATIVES AS STAT3 INHIBITORS FOR THE TREATMENT OF PROLIFERATIVE DISEASES” (King's College London, priority 2017, published 2020).

Experiment [1] addresses unphosphorylated STAT3 monomer (uSTAT3) SH2 domain (Homo sapiens, UniProt P40763). Briefly: Fluorescence polarisation assay for the inhibition of STAT3 dimerisation. Type of experiment: binding. The note with it: 350 nM uSTAT3, 10 nM FAM-pYLPQTV, 100 μM ligand; average of triplicate. From the text: Fluorescence Polarisation Assay for the Inhibition of STAT3 Dimerisation
The compounds were subjected to an in vitro fluorescent polarisation (FP)-based primary PPI binding screen to assess their ability to inhibit STAT3 dimerisation by interacting with the SH2 domain. In this FP assay, the unphosphorylated STAT3 monomer (uSTAT3) and a surrogate peptide FAM-pYLPQTV were used to form a ‘pseudo-dimer’. The assay is based on the concept that the compounds were expected to displace the surrogate peptide from the uSTAT3 resulting in a fluorescent read out.
Specifically, for the FP assay, a black (CORNING™) 96 well plate was thoroughly washed with distilled water and allowed to dry. A 100 nM FAM-pYLPQTV working solution was prepared from 10 μM FAM-pYLPQTV stock solution (in DMSO) using PBS pH 7.4 Buffer. 10 μl FAM-pYLPQTV was added to 350 nM uSTAT3 protein, the final concentration of protein in each well, in 90 μl PBS buffer pH 7.4. The MP value of the surrogate dimer complex was measured using a fluorescent plate reader (Envision™, Perkin Elmer™, USA), which provided the base MP value. The inhibitor solution was then added to the well and the assay plate was placed on a shaker for 5 minutes. The MP value for each well was then measured again. A shift in fluorescent values was observed due to displacement of the fluorescently-labelled surrogate peptide by the inhibitors, and the average inhibition for each inhibitor could be calculated as described below:
Base MP value (X) for each well=MP value of Protein and Probe (350 nm STAT3+10 nM FAM-pYLPQTV)−MP value of free FAM-pYLPQTV
Inhibitor MP value (Y) for each well=MP value of Protein+Probe+Inhibitor (350 nm uSTAT3+10 nM FAM-pYLPQTV+2 μL Inhibitor)−MP value of free FAM-pYLPQTV with 2 μL DMSO
% inhibition by any ligand/peptide=(X−Y)/X*100
For comparison purpose, the % inhibition produced by 100 μM pYLKTKF was considered to be 100%, and the inhibition produced by different ligands was reported as relative to 100 μM pYLKTKF.
% Inhibition produced by 100 μM pYLKTKF=A
% Inhibition produced by 100 μM Ligand=B
Relative inhibition (%)=B/A*100
The experiment was carried out in triplicate, and average values were taken as the measure of PPI inhibition.

In experiment [2] the test system is A4 (STAT3-null) cancer cell line. The experiment is described as follows: MTT cell viability assay, A4. Format: cell-based. The note with it: exposure (table title). From the text:
(§1) MTT Cell viability assay with both MDA-MB-231 breast (STAT3-dependent) and A4 (STAT3-null) cancer cell lines.
(§2) After observing significant STAT3 dimerisation inhibitory activity in the preliminary FP assay, the target ligand and related fragments were progressed to an MTT cytotoxicity assay to evaluate in a STAT3-dependent tumour cell line (MDA MB 231, breast cancer) and a STAT3 null A4 cell line. It was anticipated that the compounds would show selective toxicity towards the STAT3-dependent MDA MB 231 cell line and would have lost activity in the STAT3 null A4 cell line if the mechanism of action was STAT3-mediated.
(§3) For each cell line, a total of 10,000 cells were seeded for 24 hours before addition of the inhibitors. The cells were grown in normal cell culture conditions at 37° C. under a 5% CO2 humidified atmosphere using an appropriate medium. The cell count was adjusted to 10^5 cells/ml, and 5,000-20,000 cells were added per well depending on the cell line. The cells were then incubated for 24 hours, and 1 μl aliquots of the inhibitors were added to the wells in triplicate. […] Absorbance was quantified by spectrophotometry at A=570 nm (Envision™ Plate Reader, PerkinElmer™, USA). IC50 values were calculated by a dose-response analysis using the Prism GraphPad Prism® software package.

For experiment [3], the system named is STAT3 and STAT3-dependent genes. The experiment is described as follows: RT-PCR expression of STAT3 and STAT3-dependent genes in LPS-stimulated MDA-MB-231 cells. Type of experiment: cell-based, human. Particulars: 25 μM, 8 hours, MDA-MB-231 stimulated with 500 μg/mL LPS. The protocol:
Effect of Compounds of the Invention on Expression of STAT3 and STAT3-Dependent Genes.
To probe the STAT3-specific cytotoxicity of the mature ligands, the mRNA expression profile of STAT3 and some STAT3 target genes (i.e., bcl-2, cyclin D1, and fascin) were compared to the reference gene GAPDH using a RT-PCR assay. Initially, the MDA-MB-231 cells were stimulated with 500 μg/mL LPS for 24 hours at 37° C. Following this, the compounds were added at 25 μM to the cells and incubated for another 8 hours at 37° C. Finally, PCR was used to determine changes in the gene expression profiles between stimulated-untreated and stimulated-treated cells.

Experiment [4] concerns MDA-MB-231 breast (STAT3-dependent) cancer cell line. The experiment is described as follows: MTT cell viability assay, MDA-MB-231. Format: cell-based, human. The note with it: for IC50: Homo sapiens, MDA-MB-231, 48 h, MTT, 48 hours exposure (table title); for Selectivity ratio: STAT3-null A4 versus STAT3-dependent MDA-MB-231.
Text: as §1, §2, §3

Some results are limits rather than exact numbers.

Chain of unphosphorylated STAT3 monomer (uSTAT3) SH2 domain (P40763 whole entry, the tested form may be a part): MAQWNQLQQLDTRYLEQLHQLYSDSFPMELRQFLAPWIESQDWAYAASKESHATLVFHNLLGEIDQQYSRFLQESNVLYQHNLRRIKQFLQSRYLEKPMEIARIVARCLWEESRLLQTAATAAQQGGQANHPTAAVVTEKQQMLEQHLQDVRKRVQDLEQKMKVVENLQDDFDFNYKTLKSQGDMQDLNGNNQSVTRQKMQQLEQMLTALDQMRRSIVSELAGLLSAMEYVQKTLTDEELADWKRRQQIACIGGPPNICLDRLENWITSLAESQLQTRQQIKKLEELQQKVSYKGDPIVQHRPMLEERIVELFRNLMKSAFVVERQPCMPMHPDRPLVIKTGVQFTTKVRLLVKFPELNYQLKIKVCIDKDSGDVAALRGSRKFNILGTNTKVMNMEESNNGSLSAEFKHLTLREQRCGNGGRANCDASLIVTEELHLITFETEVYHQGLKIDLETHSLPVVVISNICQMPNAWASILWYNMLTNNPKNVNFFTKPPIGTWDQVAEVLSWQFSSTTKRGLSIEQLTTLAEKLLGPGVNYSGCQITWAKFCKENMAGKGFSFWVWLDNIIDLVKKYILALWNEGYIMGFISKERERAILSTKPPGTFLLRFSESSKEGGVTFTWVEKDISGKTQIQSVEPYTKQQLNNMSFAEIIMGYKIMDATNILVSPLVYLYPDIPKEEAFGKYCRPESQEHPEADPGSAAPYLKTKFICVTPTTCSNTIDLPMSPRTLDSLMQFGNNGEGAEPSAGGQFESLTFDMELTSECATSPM

Turning to `COC(=O)c1ccc(N(C)S(=O)(=O)c2cc(C(=O)Nc3ccc(OCCN4CCOCC4)cc3)sc2-c2ccc(N3CCCCC3)cc2)cc1` [Compound 10, methyl 4-((N-methyl-5-((4-(2-morpholinoethoxy)phenyl)carbamoyl)-2-(4-(piperidin-1-yl)phenyl)thiophene)-3-sulfonamido)benzoate], the inhibition at 100 µM in experiment [1] is > 50%. In addition, inhibition in experiment [2] was half-maximal at 67.5 µM (IC50). In addition, in experiment [3], the “Bcl-2 mRNA expression (RT-PCR)” value is “very strong down-regulation”, the “STAT1 mRNA expression (RT-PCR)” value is listed as “did not show any effect”, the “STAT3 mRNA expression (RT-PCR)” value is listed as “significantly downregulated” and the “cyclin D1 mRNA expression (RT-PCR)” value is “marked”. Besides, in experiment [3], the “fascin mRNA expression (RT-PCR)” value is “marked” and the “house-keeping gene GAPDH mRNA expression (RT-PCR)” value is reported as “did not show any effect”.

On to `COC(=O)c1ccc(N(C)S(=O)(=O)c2cc(C(=O)NCc3ccc(CN4CCCCC4)cc3)sc2-c2ccc(C(=O)N3CCOCC3)cc2)cc1` [Compound 4, methyl 4-((N-methyl-2-(4-(morpholine-4-carbonyl)phenyl)-5-((4-(piperidin-1-ylmethyl)benzyl)carbamoyl)thiophene)-3-sulfonamido)benzoate], for which, in experiment [1], the inhibition at 100 µM is > 50%. Moreover, half-maximal inhibition in experiment [2] (IC50) required 77.4 µM. Further, in experiment [3], the “Bcl-2 mRNA expression (RT-PCR)” value was “more pronounced”, the “STAT1 mRNA expression (RT-PCR)” value is listed as “did not downregulate”, the “STAT3 mRNA expression (RT-PCR)” value was “notable downregulation” and the “cyclin D1 mRNA expression (RT-PCR)” value was “relatively low compared to 3”. In addition, in experiment [3], the “fascin mRNA expression (RT-PCR)” value is listed as “relatively low compared to 3” and the “house-keeping gene GAPDH mRNA expression (RT-PCR)” value was “without showing any effect”.

For the compound `COC(=O)c1ccc(N(C)S(=O)(=O)c2cc(C(=O)NCc3ccc(CN4CCCCC4)cc3)sc2-c2ccc(N3CCN(C)CC3)nc2)cc1` [Compound 3, methyl 4-((N-methyl-2-(6-(4-methylpiperazin-1-yl)pyridin-3-yl)-5-((4-(piperidin-1-ylmethyl)benzyl)carbamoyl)thiophene)-3-sulfonamido)benzoate], in experiment [1], the inhibition at 100 µM is > 50%. In experiment [2], this compound displayed an IC50 of 65.1 µM. Besides, in experiment [3], the “Bcl-2 mRNA expression (RT-PCR)” value is “down-regulated”, the “STAT3 mRNA expression (RT-PCR)” value was “notable downregulation”, the “cyclin D1 mRNA expression (RT-PCR)” value is reported as “down-regulated” and the “fascin mRNA expression (RT-PCR)” value is listed as “down-regulated”. Further, in experiment [3], the “house-keeping gene GAPDH mRNA expression (RT-PCR)” value is on record as “without showing any effect”.

For the compound `COC(=O)c1ccc(N(C)S(=O)(=O)c2cc(C(=O)NCc3ccc(CN4CCCCC4)cc3)sc2-c2ccc(C#N)cc2)cc1` [Compound 8, methyl 4-((2-(4-cyanophenyl)-N-methyl-5-((4-(piperidin-1-ylmethyl)benzyl)carbamoyl)thiophene)-3-sulfonamido)benzoate], the inhibition at 100 µM in experiment [1] is 36.4%. The IC50 in experiment [2] is 34.3 µM. For the same compound, in experiment [4], inhibition was half-maximal at 12.4 µM (IC50) and the Selectivity ratio was found to be 2.76.

The compound `COC(=O)c1ccc(N(C)S(=O)(=O)c2cc(C(=O)NCc3ccc(CN4CCCCC4)cc3)sc2-c2ccc(C(=O)N3CCN(C)CC3)cc2)cc1` [Compound 7, methyl 4-((N-methyl-2-(4-(4-methylpiperazine-1-carbonyl)phenyl)-5-((4-(piperidin-1-ylmethyl)benzyl)carbamoyl)thiophene)-3-sulfonamido)benzoate] displayed an inhibition at 100 µM in experiment [1] of 40.6%. In experiment [2], this compound showed an IC50 of 65.1 µM. Further, in experiment [4], the IC50 was determined as 6.5 µM and the Selectivity ratio amounted to 10.01.

Compound `COC(=O)c1ccc(N(C)S(=O)(=O)c2cc(C(=O)NCc3ccc(CN4CCOCC4)cc3)sc2Br)cc1` [Compound 31, methyl 4-((2-bromo-N-methyl-5-((4-(morpholinomethyl)benzyl)carbamoyl)thiophene)-3-sulfonamido)benzoate] had an inhibition at 100 µM in experiment [1] of 27.3%. The same compound gave an IC50 in experiment [2] of 24.7 µM. For the same compound, in experiment [4], the IC50 amounted to 32.5 µM and the Selectivity ratio was 0.76.

`COC(=O)c1ccc(N(C)S(=O)(=O)c2cc(C(=O)Nc3ccc(OCCN4CCOCC4)cc3)sc2-c2ccnc(N3CCNCC3)c2)cc1` [Compound 14, methyl 4-((N-methyl-5-((4-(2-morpholinoethoxy)phenyl)carbamoyl)-2-(2-(piperazin-1-yl)pyridin-4-yl)thiophene)-3-sulfonamido)benzoate] registered an inhibition at 100 µM in experiment [1] of 33.3%. Moreover, the 50% inhibitory concentration (IC50) was determined as 78.4 µM in experiment [2] and 14.5 µM in experiment [4]. The Selectivity ratio in experiment [4] is recorded as 5.40.

The compound `COC(=O)c1ccc(N(C)S(=O)(=O)c2cc(C(=O)Nc3ccc(N4CCCCC4)cc3)sc2Br)cc1` [Compound 21, methyl 4-((2-bromo-N-methyl-5-((4-(piperidin-1-yl)phenyl)carbamoyl)thiophene)-3-sulfonamido)benzoate] had an inhibition at 100 µM in experiment [1] of 22.7%. Also, the IC50 in experiment [2] was determined as 64.7 µM. In experiment [4], the IC50 is 23.5 µM and the Selectivity ratio stood at 2.75.

On to `COC(=O)c1ccc(N(C)S(=O)(=O)c2cc(C(=O)NCc3ccc(N4CCN(C)CC4)cc3)sc2-c2ccc(N3CCCCC3)cc2)cc1` [Compound 17, methyl 4-((N-methyl-5-((4-(4-methylpiperazin-1-yl)benzyl)carbamoyl)-2-(4-(piperidin-1-yl)phenyl)thiophene)-3-sulfonamido)benzoate], for which the inhibition at 100 µM in experiment [1] was determined as 43.7%. Also, the IC50 in experiment [2] came to 64.3 µM. In experiment [4], the IC50 amounted to 4.7 µM and the Selectivity ratio was 13.68.

As for `COC(=O)c1ccc(N(C)S(=O)(=O)c2cc(C(=O)NCc3ccc(CN4CCCC4)cc3)sc2Br)cc1` [Compound 37, methyl 4-((2-bromo-N-methyl-5-((4-(pyrrolidin-1-ylmethyl)benzyl)carbamoyl)thiophene)-3-sulfonamido)benzoate], in experiment [1], the inhibition at 100 µM turned out to be 30.2%. This compound also gave an IC50 in experiment [2] of 55.6 µM. Moreover, in experiment [4], the IC50 came out at 5.64 µM and the Selectivity ratio amounted to 9.85.
